According to US7807686B2, “2-(4-oxo-4H-quinazolin-3-yl)acetamides and their use as vasopressin V3 antagonists” (N.V. Organon, priority 2005, dated 2010):

How the values were obtained:
V3 receptor = biological target: T1, V3 receptor (Rattus norvegicus, UniProt P48974); test: Block of AVP-induced ACTH release from rat anterior pituitary corticotrophs; type: cell-based; settings: inhibition of ACTH release induced by 3×10^-9 mol.L^-1 AVP, ELISA; read-out: V3 receptor antagonism in isolated rat anterior pituitary cells
T1 construct: Anterior pituitary corticotrophs were prepared from adult female Sprague-Dawley rats; from tissue; host or cells: primary anterior pituitary corticotrophs from adult female Sprague-Dawley rats
T1 sequence (P48974 1-425): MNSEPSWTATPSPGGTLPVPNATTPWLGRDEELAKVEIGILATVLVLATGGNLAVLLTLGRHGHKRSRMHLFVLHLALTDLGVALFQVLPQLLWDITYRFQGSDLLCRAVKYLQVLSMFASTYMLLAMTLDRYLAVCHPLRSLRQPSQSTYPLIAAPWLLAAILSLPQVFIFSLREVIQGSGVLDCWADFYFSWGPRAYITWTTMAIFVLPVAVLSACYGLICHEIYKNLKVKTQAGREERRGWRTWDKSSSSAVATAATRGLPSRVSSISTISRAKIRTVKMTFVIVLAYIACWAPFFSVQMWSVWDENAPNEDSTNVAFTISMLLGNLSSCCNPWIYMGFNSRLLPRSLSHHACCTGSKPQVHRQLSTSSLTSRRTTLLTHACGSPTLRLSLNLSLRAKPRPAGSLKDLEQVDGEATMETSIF
Experimental: The ability of compounds of the invention to act as V3 antagonists in a physiologically relevant system was determined by measuring their ability to block the release of adrenocorticotropic hormone (ACTH) from anterior pituitary corticotrophs in response to treatment with arginine vasopressin (AVP).
Anterior pituitary corticotrophs were prepared from adult female Sprague-Dawley rats and seeded into 48 well plates. The cells were cultured for 4 days prior to exposure to compound. Test compounds were prepared at […] in 100% DMSO. Cells were exposed to a dose response of test compounds for 20 minutes (10^−8 mol.L^−1-10^−5 mol.L^−1). The final concentration of DMSO in the assay was kept constant at 0.3%. The cells were then exposed to 3×10^−9 mol.L^−1 AVP for 120 minutes. Supernatants were harvested and stored at −20° C. ACTH levels were subsequently measured by ELISA following the manufacturer's instructions (Immunodiagnostic systems, UK (Cat No. DX-SDX018)). Each treatment was carried out in quadruplicate and a mean value obtained for the amount of ACTH released. The degree of antagonism was then calculated as a percentage of the amount of ACTH released by agonist alone after adjustment for basal levels of ACTH. A pIC50 was calculated by fitting a Sigmoidal dose response (variable slope) curve with a non-linear (fit) to the data using the software package GraphPad prism. […]

| SMILES | IC50 (V3 receptor) | melting point |
| --- | --- | --- |
| COc1cccc(-c2nc3ccc(OCCCN4CCCCC4)cc3c(=O)n2CC(=O)NC(C)C)c1 [EXAMPLE 2h, N-Isopropyl-2-[2-(3-methoxyphenyl)-4-oxo-6-(3-piperidin-1-ylpropoxy)-4H-quinazolin-3-yl]acetamide] | 0.01 to 0.1 µM |  |
| COc1cccc(-c2nc3ccc(-c4cccc(CN(C)C)c4)cc3c(=O)n2CC(=O)NC(C)C)c1 [EXAMPLE 7k, 2-[6-(3-Dimethylaminomethylphenyl)-2-(3-methoxyphenyl)-4-oxo-4H-quinazolin-3-yl]-N-isopropylacetamide] | 0.1 to 1 µM |  |
| CCN(CC)C[C@H](C)COc1ccc2nc(-c3cccc(OC)c3)n(CC(=O)NC(C)C)c(=O)c2c1 [Example 4a, (S)-(+)-2-[6-(3-Diethylamino-2-methylpropoxy)-2-(3-methoxyphenyl)-4-oxo-4H-quinazolin-3-yl]-N-isopropylacetamide] |  | 161 to 163 °C |
